Results published in patent US4346102A, “3H-Dihydrofuranone-2 derivatives and pharmaceutical use thereof” (Delalande S.A., priority 1979, dated 1982).
Like-named read-outs stand apart in the source and are kept apart here.

Assays:
[1] = Acute toxicity, LD 50 in mice, oral; details: mouse, in vivo
ptosis (reserpine) = experiment: Test A: antagonism with respect to ptosis observed one hour after intravenous injection of reserpine in mice; assay type: in vivo; details: Mus musculus, 1 h, read-out: Test A ED 50
Method: Test A: Antagonism with respect to ptosis observed one hour after an intravenous injection (2 mg/kg) of reserpine given to mice according to the protocol described by GOURET C. and THOMAS J. in J. Pharmacol. (Paris, (1973), 4, 401.

[2] = system: generalized trembling caused by dl-5-hydroxytryptophane; experiment: Test B: potentialization in mice of generalized trembling caused by dl-5-hydroxytryptophane; assay type: in vivo; details: Mus musculus, read-out: Test B ED 50
Source text: Test B: Potentialization in mice of generalized trembling caused by an intraperitoneal injection of dl-5-hydroxytryptophane, according to the protocol described by GOURET C. and RAYNAUD G. in J. Pharmacol. (Paris), (1974), 5, 231.

[3] = mice, oral, ptosis one hour after reserpine 2 mg/kg i.v.
[4] = mice, oral, dl-5-hydroxytryptophane i.p.

SMILES | LD50 [1] | ED50 (ptosis (reserpine); [3]) | ED50 [2, 4] | ED50 (ptosis (reserpine); po) | ED50 ([2]; po)
COC[C@H]1C[C@@H](c2ccc(OCCCCCl)cc2)C(=O)O1 (relative stereo) [3 B] | 2000 mg/kg | 3.6 mg/kg | 1.7 mg/kg | – | –
COC[C@H]1C[C@@H](c2ccc(OCc3ccccc3)cc2)C(=O)O1 (relative stereo) [5 B] | – | 11.5 mg/kg | 15.5 mg/kg | – | –
O=C1O[C@@H](CO)C[C@@H]1c1ccc(OCc2cccc([N+](=O)[O-])c2)cc1 (relative stereo) [6 A] | > 2000 mg/kg | 4.4 mg/kg | 5.8 mg/kg | – | –
O=C1O[C@@H](CO)C[C@H]1c1ccc(OCc2cccc([N+](=O)[O-])c2)cc1 (relative stereo) [6 B] | > 2000 mg/kg | 1.6 mg/kg | 2 mg/kg | – | –
CC(=O)OC[C@H]1C[C@H](c2ccc(OCc3cccc([N+](=O)[O-])c3)cc2)C(=O)O1 (relative stereo) [7 A] | – | 12.5 mg/kg | 10 mg/kg | – | –
CC(=O)OC[C@H]1C[C@@H](c2ccc(OCc3cccc([N+](=O)[O-])c3)cc2)C(=O)O1 (relative stereo) [7 B] | > 2000 mg/kg | 2.5 mg/kg | 3.2 mg/kg | – | –
COC[C@H]1C[C@H](c2ccc(OCc3cccc([N+](=O)[O-])c3)cc2)C(=O)O1 (relative stereo) [8 A] | > 2000 mg/kg | 6.2 mg/kg | 4.4 mg/kg | – | –
COC[C@H]1C[C@@H](c2ccc(OCc3cccc([N+](=O)[O-])c3)cc2)C(=O)O1 (relative stereo) [8 B] | 2000 mg/kg | 0.58 mg/kg | 0.29 mg/kg | – | –
COC[C@H]1C[C@H](c2ccc(OCc3cccc(Cl)c3)cc2)C(=O)O1 (relative stereo) [10 A] | > 2000 mg/kg | 24 mg/kg | 10 mg/kg | – | –
COC[C@H]1C[C@@H](c2ccc(OCc3cccc(Cl)c3)cc2)C(=O)O1 (relative stereo) [10 B] | > 2000 mg/kg | 15 mg/kg | 10 mg/kg | – | –
COC[C@@H]1C[C@@H](c2ccc(OCc3cccc(C#N)c3)cc2)C(=O)O1 (relative stereo) [13 A] | > 2000 mg/kg | 12 mg/kg | 20 mg/kg | – | –
COC[C@@H]1C[C@H](c2ccc(OCc3cccc(C#N)c3)cc2)C(=O)O1 (relative stereo) [13 B] | > 2000 mg/kg | 0.9 mg/kg | 1.7 mg/kg | – | –
COC[C@H]1C[C@H](c2ccc(OCc3cc(C#N)cc([N+](=O)[O-])c3)cc2)C(=O)O1 (relative stereo) [17 A] | > 2000 mg/kg | 5.5 mg/kg | 6.4 mg/kg | – | –
COC[C@H]1C[C@@H](c2ccc(OCc3cc(C#N)cc([N+](=O)[O-])c3)cc2)C(=O)O1 (relative stereo) [17 B] | 1700 mg/kg | 0.32 mg/kg | 0.55 mg/kg | – | –
COC[C@H]1C[C@H](c2ccc(OCc3ccc(F)c(Cl)c3)cc2)C(=O)O1 (relative stereo) [18 A] | – | 23 mg/kg | 16 mg/kg | – | –
COC[C@H]1C[C@@H](c2ccc(OCc3ccc(F)c(Cl)c3)cc2)C(=O)O1 (relative stereo) [18 B] | > 2000 mg/kg | 5.4 mg/kg | 3.1 mg/kg | – | –

SMILES | LD50 [1] | ED50 (ptosis (reserpine); [3]) | ED50 [2, 4] | ED50 (ptosis (reserpine); po) | ED50 ([2]; po)
N[C@@H]1C[C@H]1c1ccccc1 (relative stereo) [TRANYLCYPROMINE, reference compound] | 58 mg/kg | – | – | 1.55 mg/kg | 1.37 mg/kg
CC(C)CCOc1ccc(C2CC(CO)OC2=O)cc1 (stereo not drawn) [Compound 1] | – | 19 mg/kg | 14 mg/kg | – | –
O=C1OC(CO)CC1c1ccc(OCC2CCCCC2)cc1 (stereo not drawn) [Compound 2] | > 2000 mg/kg | 5.5 mg/kg | 9 mg/kg | – | –
COCC1CC(c2ccc(OCCCCC#N)cc2)C(=O)O1 (stereo not drawn) [Compound 4] | > 2000 mg/kg | 0.3 mg/kg | 0.19 mg/kg | – | –
O=C1OC(CO)CC1c1ccc(OCc2cccc([N+](=O)[O-])c2)cc1 (stereo not drawn) [Compound 6, 3-para(metanitrobenzyloxy)phenyl-5-hydroxymethyl-3H-dihydrofuranone-2] | – | 1.4 mg/kg | 1.5 mg/kg | – | –
COCC1C=C(c2ccc(OCc3cccc([N+](=O)[O-])c3)cc2)C(=O)O1 (stereo not drawn) [Compound 9] | > 2000 mg/kg | 0.22 mg/kg | – | – | –
COCC1C=C(c2ccc(OCc3cccc(Cl)c3)cc2)C(=O)O1 (stereo not drawn) [Compound 11] | > 2000 mg/kg | 2.3 mg/kg | 1.6 mg/kg | – | –
N#Cc1cccc(COc2ccc(C3CC(CO)OC3=O)cc2)c1 (stereo not drawn) [Compound 12] | – | 10 mg/kg | 16 mg/kg | – | –
COCC1C=C(c2ccc(OCc3cccc(C#N)c3)cc2)C(=O)O1 (stereo not drawn) [Compound 14, 3-para(metacyanobenzyloxy)-phenyl-5-methoxymethyl-5H-furanone-2] | – | 0.68 mg/kg | 0.55 mg/kg | – | –
COCC1CC(c2ccc(OCc3cccnc3)cc2)C(=O)O1 (stereo not drawn) [Compound 15] | – | 5.8 mg/kg | 12 mg/kg | – | –
N#Cc1cc(COc2ccc(C3CC(CO)OC3=O)cc2)cc([N+](=O)[O-])c1 (stereo not drawn) [Compound 16] | > 2000 mg/kg | 1.2 mg/kg | 3.5 mg/kg | – | –
COCC1C=C(c2ccc(OCc3ccc(F)c(Cl)c3)cc2)C(=O)O1 (stereo not drawn) [Compound 19] | > 2000 mg/kg | 2.1 mg/kg | 2.4 mg/kg | – | –
COCC1C=C(c2ccc(OCc3ccccc3)cc2)C(=O)O1 (stereo not drawn) [Compound 20] | > 2000 mg/kg | 4.4 mg/kg | 4 mg/kg | – | –
O=C(CCNNC(=O)c1ccncc1)NCc1ccccc1 [NIALAMIDE, reference compound] | 1100 mg/kg | – | – | 4.5 mg/kg | 5.2 mg/kg
C#CCN(C)Cc1ccccc1 [PARGYLINE, reference compound] | 480 mg/kg | 34 mg/kg | 48 mg/kg | – | –
C#CCN(C)C(C)Cc1ccccc1 (stereo not drawn) [reference compound] | 520 mg/kg | – | – | 9 mg/kg | 3 mg/kg
